Laboratory results reported in article PMC10115881, “Disrupting the α-synuclein-ESCRT interaction with a peptide inhibitor mitigates neurodegeneration in preclinical models of Parkinson’s disease” (Nature Communications, 2023).

System: A53T a-syn
Experiment: A53T a-syn immunofluorescence in rat cortical neurons
Format: cell-based, human
Conditions: primary rat cortical neurons
From the text: Pregnant rats (E17) of the Sprague-Dawley strain were purchased from Envigo. Embryos were surgically removed from the mothers and cortices dissected in Hanks Balanced salt solution (Gibco). The meninges were removed, and cells were dissociated using a papain dissociation system (Worthington) before being resuspended in Neurobasal medium A supplemented with antibiotic-antimycotic solution (Gibco), L-glutamine substitute (GlutaMAX™; Gibco) and factor B27 (Gibco). […]
After fixation, cells were permeabilized with 0.2% Triton-X-100 for 15 min, washed three times with PBS and then incubated with blocking solution (1% BSA, 22.52 mg/mL glycine, 0.1% Tween-20 in PBS or 0.4% saponin, 1% BSA, and 5% goat or donkey serum in PBS) for 1 h. […] Following another three washes with PBS, nuclei were counterstained with DAPI (ThermoFisher) and then coverslips were mounted on slides using Dako fluorescence mounting medium (Agilent) and sealed using clear nail varnish.
Confocal images of immunofluorescent staining were acquired with a Zeiss LSM880 confocal microscope equipped with 405, 488, 555, and 639 nm laser lines. All images were taken within the linear range at constant gain and pinhole settings at optimal resolution settings determined by the software. […]

DEEIERQLKALG [PDpep1.3]
Effect on A53T a-syn fluorescence: significant decrease in A53T a-syn fluorescence intensity
